# Data from patent publication US20230372282A1, “METHOD FOR TREATEING OR […] OPTIC NEUROPATHY” (TZU CHI UNIVERSITY, priority 2022, published 2023).
# Key:
# [1] = test system: retinal ganglion cells (RGCs); assay: Retrograde labeling of RGCs with FluoroGold: RGC density and survival after AION induction; format: in vivo, rat
# Protocol: (§1) Adult male Wistar rats of 4 to 6 weeks of age (weighing 100-125 g) were used in the animal model of ischemic optic neuropathy and were divided into three groups: the sham group, the group administered with PBS following ischemic optic neuropathy injury, and the group with ischemic optic neuropathy injury accompanied by intraperitoneal injection of BP at 10 mg/kg for 7 consecutive days. The rats were housed in an animal room having a 12-hour light/dark cycle (the light cycle time is from 7 a.m. to 7 p.m.) with temperature controlled at 23° C. and humidity controlled at 55%, and supplied with filtered sterilized water and general rodent feed. During the experiment, general anesthesia of rats was performed by intramuscular injection of ketamine at 100 mg/kg and xylazine at 10 mg/kg. Local anesthesia was performed by using 0.5% Alcaine, and mydriasis was performed by administering Mydrin-P. To sacrifice the rats, carbon dioxide at a filling rate of 5 L/min was injected so that the volume of carbon dioxide was 20% of that of the cage, thereby achieving the main goal of reducing animal suffering.
# (§2) Firstly, under local anesthesia, rats were administrated with Alcaine and Mydrin-P eye drops to induce mydriasis. Subsequently, the rats were intravenously injected with rose bengal (2.5 mM dissolved in PBS at pH 7.4) at 1 mL/kg, and immediately irradiated with 12 pulses (once per second) of argon green laser (wavelength: 532 nm, size: […], power: 80 mW) to excite various parts of the optic disc. In addition, the laser was focused on the optic disc by an ophthalmoscope. Then, Tobradex eye ointment was applied evenly to the rats' eyes. Finally, the physical health of the rats was taken care of daily until the end of the study.
# Retrograde labeling was performed three weeks after the rats were AION induced. […] One week after labeling, the rats were sacrificed and the eyeballs were carefully removed from the […] and fixed in 10% formalin for 2 hours. The entire retina was placed flat on a slide and paired with a filter set (excitation filter: 350-400 nm; radiation filter: 515 nm) and observed for morphology under a fluorescence microscope. The region with a radius of 1 mm from the center of the retina is defined as the central region, and the region with a radius of 3 mm from the center is defined as the mid-peripheral region. Ten blocks (38,250 μm^2; 225 μm×170 μm) were randomly selected from the central region and the mid-peripheral region to estimate the density of RGCs to determine the survival rate of RGCs.
# To investigate the effect of BP on RGC survival rates after AION induction, retrograde labeling was carried out using Fluorogold (FG). […]
# rAION model [2] = assay: Flash visual evoked potential (FVEP), P1-N2 amplitude after AION induction; format: in vivo, rat; settings: 28 days after AION induction, BP 10 mg/kg i.p. 7 days; PBS group 13.70±5.59, sham 33.63±8.30
# Protocol: as §1, with “Local anesthesia was performed by using 0.5% Alcaine, and mydriasis was performed by administering Mydrin-P. To sacrifice the rats, carbon dioxide at a filling rate of 5 L/min was injected so that the volume of carbon dioxide was 20% of that of the cage, thereby achieving the main goal of reducing animal suffering.” left out
# Twenty-eight days after AION induction, electrodes were implanted into the primary visual cortex (anteroposterior: −8 mm; dorsoventral: ±3 mm) and frontal cortex (anteroposterior: +1 mm), while a ground electrode was implanted in the tail. […] The general visual function was evaluated by P1-N2 amplitude. […]
# rAION model [3] = assay: Optical coherence tomography (OCT) imaging of optic nerve width and RNFL after AION induction; format: in vivo, rat; settings: BP 10 mg/kg i.p.
# Protocol: as §1, §2
# On days 1, 3, 7, 14, and 28 after AION induction, the optic nerve width (ONW) and the coherence tomography image of the retinal nerve fiber layer (RNFL) were obtained using a Micron IV retinal microscope. The vertical resolution and horizontal resolution of the imaging system were set to be 1.8 μm and 3 μm, respectively, to provide a 3.2 mm field of view and 1.2 mm depth of field for the retina. The cornea was moistened with Methocel 2%. The Micron eyepiece was glued to be in direct contact with the eye. To allow vertical light penetration through the cornea, the retinal nerve fiber layer and the Bruch's membrane opening (ONW) were imaged with circular and linear scans, respectively, with an average of 50 frames per scan.
# The optic nerve width (ONW) and retinal nerve fiber layer (RNFL) thickness were measured on days 1, 3, 7, 14, and 28 using optical coherence tomography (OCT) imaging in the sham group, PBS-treated group, and BP-treated group. As shown in FIG. 5A and FIG. 5B, after AION induction, optic disc swelling can clearly observed in the acute onset stage, and it was improved by administration of BP on days 3, 7 and 28 (311.95±23.21 μm vs. 469.58±29.35 μm, 259.35±33.73 μm vs. 329±25.73 μm, 273.71±23.22 μm vs. 300.73±26.41 μm, respectively). Compared with the PBS-treated group, BP was efficient in maintaining the area of the RNFL (0.089±0.0027 mm^2 vs. 0.08±0.0028 mm^2, 0.074±0.0089 mm^2 vs. 0.047±0.0042 mm^2 respectively) on days 14 and 28.
# RGC layer = assay: TUNEL assay of apoptotic cells in the RGC layer; format: in vivo, rat; settings: rAION rats, BP 10 mg/kg i.p. 7 days; PBS group 11.2±2.8, sham 2.8±1.9
# Protocol: as §1, with “suffering. […]” for “suffering.”
# Apoptotic cells in the ganglion cell layer (GCL) were detected using TUNEL assay according to the manufacturer's protocol. TUNEL-positive cells were calculated manually based on at least 6 retinal sections per eyeball in three groups (n=6 for each group). […]
# ED1+ macrophages = assay: Immunohistochemistry of ED1+ macrophage infiltration in the optic nerve; format: in vivo, rat; settings: rAION rats, BP 10 mg/kg i.p. 7 days; PBS group 166.4±19.3, sham 8.7±4.8
# Protocol: as §1, with “Local anesthesia was performed by using 0.5% Alcaine, and mydriasis was performed by administering Mydrin-P. To sacrifice the rats, carbon dioxide at a filling rate of 5 L/min was injected so that the volume of carbon dioxide was 20% of that of the cage, thereby achieving the main goal of reducing animal suffering.” left out
# (§3) First, vertical-sections of the ON were blocked with 2% bovine serum albumin (BSA) containing 0.3% triton X-100 for 1 hour. […] Fluorescence photographs of the sections of the ON tissue were taken at 10× magnification and 20× magnification using the Zeiss LSM 900 confocal system. The 20× magnified image of ED1^+ cells was analyzed using ImageJ software for quantification of exogenous macrophages. […]
# CNPase = assay: Immunohistochemistry of CNPase in the optic nerve (myelin integrity); format: in vivo, rat; settings: rAION rats, BP 10 mg/kg i.p. 7 days; after AION induction 4.24±0.71, sham 11.06±2.60
# Protocol: as §1, with “Local anesthesia was performed by using 0.5% Alcaine, and mydriasis was performed by administering Mydrin-P. To sacrifice the rats, carbon dioxide at a filling rate of 5 L/min was injected so that the volume of carbon dioxide was 20% of that of the cage, thereby achieving the main goal of reducing animal suffering.” left out
# as §3
# NF-κB signaling pathway = assay: Western blotting of retinal protein, NF-κB-related pathway; format: in vivo; settings: rat retina, rAION, compared with AION+PBS group
# Protocol: as §1, §2
# The detailed process of Western blotting process was described in the inventors' previous articles Cell Death Dis. 2017, 8, e3172 and Nat. Med. 2015, 21, 677-687. The total protein of the rat retina was extracted with modified radio immunoprecipitation assay (RIPA) buffer, and the protein concentrations were analyzed using the bicinchoninic acid (BCA) protein assay kit. […] The protein signal on the membrane was detected using an enhanced chemiluminescence (ECL) kit. The signal strength of the bands was quantified using ImageJ software.
# Previous studies have pointed out that the upregulation of reactive oxygen species (ROS) in ischemic injury induces inflammatory response through the IκBα-NF-κB signaling pathway. Here, protein expression of the NF-κB-related pathway was evaluated to investigate the molecular mechanisms involved in the protection of nerves by administration of BP. […]
# [4] = rodent model of NAION, BP 10 mg/kg i.p. 7 days
smiles,measurement,setting,value
"CCC/C=C1\OC(=O)c2ccccc21 [BP, n-butylidenephthalide]",density of RGCs in the central retina,"[1]; rAION Wistar rats, BP 10 mg/kg intraperitoneal for 7 consecutive days, FluoroGold labeling 3 weeks after induction, sacrifice 1 week later, PBS group 935±514, sham 2771±453",2172±458 RGCs per mm^2
same,density of RGCs in the mid-peripheral retina,"[1]; rAION Wistar rats, BP 10 mg/kg intraperitoneal for 7 consecutive days, PBS group 750±452, sham 2236±487",1962±505 RGCs per mm^2
same,improvement of RGC survival rate in the central retina,[1]; [4],44.7%
same,improvement of RGC survival rate in the mid-peripheral retina,[1]; [4],54.2%
same,FVEP P1 to N2 amplitude,rAION model [2],22.01±7.03 μV
same,optic nerve width (ONW),"rAION model [3]; day 3 after AION induction, vs. 469.58±29.35 PBS group",311.95±23.21 μm
same,optic nerve width (ONW),"rAION model [3]; day 7 after AION induction, vs. 329±25.73 PBS group",259.35±33.73 μm
same,area of the RNFL,"rAION model [3]; day 14 after AION induction, vs. 0.08±0.0028 PBS group",0.089±0.0027 mm^2
same,area of the RNFL,"rAION model [3]; day 28 after AION induction, vs. 0.047±0.0042 PBS group",0.074±0.0089 mm^2
same,optic nerve width (ONW),"rAION model [3]; day 28 after AION induction, vs. 300.73±26.41 PBS group",273.71±23.22 μm
same,TUNEL-positive cells in the RGC layer per high powered field (HPF),RGC layer,3.7±1.5
same,ED1-positive cells in the optic nerve per high powered field,ED1+ macrophages,80.1±28.9
same,expression of CNPase in the optic nerve (IHC signal),CNPase,7.20±1.22
same,expression of IL-1β,NF-κB signaling pathway,reduced expression
same,expression of NLRP3,NF-κB signaling pathway,reduced expression
same,phosphorylation of IκBα (phospho-IκBα expression level),NF-κB signaling pathway,significantly inhibited phosphorylation
same,phosphorylation of NF-κB (phospho-NF-κB expression level),NF-κB signaling pathway,significantly inhibited phosphorylation
